Here are results for 14 compounds from PubChem BioAssay (NCI).

Test systems include NCI-H23 lung; A498 renal; OVCAR-3 ovarian; HCC-2998 colon; NCI-H522 lung; UACC-62 melanoma; SNB-75 CNS; OVCAR-5 ovarian; M14 melanoma; 786-0 renal.
Assay in all cases: NCI anticancer screen, dose series, 48 h

Molecules are shown by their SMILES. Several values for one entry are separate records, joined by “and”; a condition that tells them apart may be missing. Equal values may be shown once.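 Following 48 hours of exposure in 96-well plates, responses at five concentrations were used to interpolate endpoints linearly. GI50 is the concentration that inhibits growth by half. The concentration for full growth arrest is given as TGI.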 A value given as a limit tells only on which side of the number the result lay.

Consider `COc1cccc2c(Nc3ccc(C(=O)NCCN4CCNCC4)cc3)cc(-c3ccccc3)nc12`, for which the GI50 is greater than 100 µM with NCI-H23 lung; greater than 100 µM in the experiment on A498 renal; greater than 100 µM in the experiment with OVCAR-3 ovarian; 49.2 µM with HCC-2998 colon; 15.8 µM in the experiment with NCI-H522 lung; 65.6 µM in the experiment on UACC-62 melanoma. Besides, the GI50 is 33.2 µM in the experiment on SNB-75 CNS, greater than 100 µM with OVCAR-5 ovarian, 20.1 µM in the experiment with M14 melanoma and 51.1 µM in the experiment on 786-0 renal. For the same compound, the TGI in the experiment with NCI-H23 lung was greater than 100 µM; in the experiment with A498 renal, greater than 100 µM; in the experiment on OVCAR-3 ovarian, greater than 100 µM; in the experiment with HCC-2998 colon, greater than 100 µM; in the experiment with NCI-H522 lung it was 30.5 µM; with UACC-62 melanoma, greater than 100 µM. Besides, the TGI in the experiment with SNB-75 CNS was greater than 100 µM; in the experiment with OVCAR-5 ovarian it was greater than 100 µM; in the experiment with M14 melanoma, 38.7 µM; in the experiment on 786-0 renal, greater than 100 µM.

Consider `Brc1ccc2c(c1)-c1ccccc1C1=NCCN12`, for which the GI50 in the experiment with NCI-H23 lung is 1.8 µM; in the experiment with A498 renal it was 0.866 µM; in the experiment with OVCAR-3 ovarian, 2.08 µM; in the experiment on HCC-2998 colon, 1.3 µM; in the experiment on NCI-H522 lung, 0.762 µM; in the experiment on UACC-62 melanoma, 1.69 µM. The GI50 with SNB-75 CNS is 1.53 µM; in the experiment on OVCAR-5 ovarian, 1.64 µM; with M14 melanoma, 1.48 µM; with 786-0 renal, 1.61 µM. For the same compound, the TGI in the experiment with NCI-H23 lung is 11.3 µM; in the experiment with A498 renal it was 2.36 µM; in the experiment with OVCAR-3 ovarian it was 8.04 µM; in the experiment on HCC-2998 colon, 8.49 µM; with NCI-H522 lung, 2.75 µM; in the experiment with UACC-62 melanoma it was 3.24 µM. Also, the TGI stood at 4.15 µM in the experiment with SNB-75 CNS, 10.4 µM in the experiment on OVCAR-5 ovarian, 3.16 µM with M14 melanoma and 11.7 µM with 786-0 renal.

Turning to `O=C(/C=C/c1ccc(OCC(=O)N2CCN(c3ccccc3)CC2)cc1)c1ccccc1`, the TGI was 85.6 µM in the experiment on NCI-H23 lung; greater than 100 µM in the experiment on A498 renal; greater than 100 µM with OVCAR-3 ovarian; greater than 72.4 µM in the experiment with HCC-2998 colon; greater than 56.8 µM with NCI-H522 lung; greater than 59.7 µM in the experiment with UACC-62 melanoma. Further, the TGI with SNB-75 CNS is greater than 78.9 µM; with OVCAR-5 ovarian, greater than 90 µM; in the experiment on M14 melanoma it was greater than 100 µM; with 786-0 renal, greater than 57.9 µM.

For `Cn1c(=O)c(Oc2ccc(F)cc2F)cc2cnc(NC3CCC(O)CC3)nc21` (stereo not given), the GI50 was greater than 25 µM with NCI-H23 lung; 5.89 µM in the experiment on A498 renal; greater than 25 µM with OVCAR-3 ovarian; greater than 25 µM in the experiment with HCC-2998 colon; greater than 25 µM in the experiment on NCI-H522 lung; greater than 25 µM in the experiment with UACC-62 melanoma. In addition, the GI50 in the experiment with SNB-75 CNS, in the experiment with OVCAR-5 ovarian, in the experiment with M14 melanoma and in the experiment on 786-0 renal was greater than 25 µM in each case. Moreover, the TGI with NCI-H23 lung, in the experiment with A498 renal, with OVCAR-3 ovarian, in the experiment with HCC-2998 colon, in the experiment on NCI-H522 lung and in the experiment with UACC-62 melanoma was greater than 25 µM in each case. Also, the TGI with SNB-75 CNS, in the experiment with OVCAR-5 ovarian, with M14 melanoma and in the experiment with 786-0 renal was greater than 25 µM in each case.

Turning to `COc1cc2nccc(Oc3ccc(NC(=O)C4(C(=O)Nc5ccc(F)cc5)CC4)cc3)c2cc1OC`, the GI50 with NCI-H23 lung is > 10 µM and 2.83 µM; with A498 renal it was 1.2 µM and 0.429 µM; in the experiment with OVCAR-3 ovarian, > 10 µM and 6.03 µM; with HCC-2998 colon, > 10 µM and 6.29 µM; in the experiment on NCI-H522 lung, > 10 µM and 4.28 µM; in the experiment on UACC-62 melanoma, 4.74 µM and 1.97 µM. In addition, the GI50 in the experiment on SNB-75 CNS is 0.27 µM; with OVCAR-5 ovarian, > 10 µM and 3.5 µM; in the experiment with M14 melanoma, > 10 µM and 2.9 µM; in the experiment with 786-0 renal it was > 10 µM and 5.52 µM. Moreover, the TGI with NCI-H23 lung is greater than 100 µM; in the experiment on A498 renal, > 10 µM and 3.43 µM; in the experiment on OVCAR-3 ovarian, > 10 µM and 54 µM; in the experiment on HCC-2998 colon it was greater than 100 µM; with NCI-H522 lung it was greater than 45.3 µM; in the experiment on UACC-62 melanoma it was > 10 µM and 32.3 µM. In addition, the TGI in the experiment on SNB-75 CNS is 8.14 µM; in the experiment with OVCAR-5 ovarian, greater than 58.3 µM; in the experiment with M14 melanoma, > 10 µM and 18.3 µM; with 786-0 renal it was greater than 54.9 µM.

As for `CCc1c[nH]c2ncnc(N3CC[C@](N)(CNC(=O)c4ccc(F)cc4F)C3)c12`, the GI50 is 18.6 µM in the experiment on NCI-H23 lung; 0.245 µM with A498 renal; 11.4 µM in the experiment with OVCAR-3 ovarian; 11.5 µM with HCC-2998 colon; 30.1 µM in the experiment with NCI-H522 lung; 3.33 µM in the experiment on UACC-62 melanoma. The GI50 in the experiment on SNB-75 CNS was 0.0768 µM; in the experiment with OVCAR-5 ovarian, 21.7 µM; in the experiment with M14 melanoma, 15.6 µM; in the experiment with 786-0 renal, 0.479 µM. The TGI in the experiment on NCI-H23 lung is greater than 100 µM; with A498 renal, 1.73 µM; in the experiment with OVCAR-3 ovarian, greater than 100 µM; with HCC-2998 colon, greater than 100 µM; with NCI-H522 lung it was greater than 100 µM; with UACC-62 melanoma it was 45.1 µM. Also, the TGI with SNB-75 CNS was 7.97 µM; in the experiment with OVCAR-5 ovarian it was greater than 100 µM; with M14 melanoma, greater than 100 µM; with 786-0 renal it was 19.8 µM.

For the compound `NC1=NN(c2ccccc2)C(=O)C1/C(=N\NC(=O)c1cc2ccccc2cc1O)C(=O)Nc1ccc(Cl)cc1` (stereo not given), the TGI with NCI-H23 lung is 77.3 µM; with A498 renal it was 98.1 µM; in the experiment with OVCAR-3 ovarian, greater than 100 µM; in the experiment on HCC-2998 colon it was greater than 100 µM; in the experiment on NCI-H522 lung it was 83.4 µM; in the experiment on UACC-62 melanoma, 66.2 µM. The TGI in the experiment on SNB-75 CNS was 54.8 µM; in the experiment on OVCAR-5 ovarian, greater than 100 µM; with M14 melanoma it was 74.7 µM; in the experiment with 786-0 renal it was greater than 100 µM.

Regarding `CC(=O)Nc1ccc(C(=O)COc2cccc(/C=C3\CCc4ccccc4C3=O)c2)cc1`, the GI50 in the experiment with NCI-H23 lung is 14.4 µM; in the experiment with A498 renal, 53.6 µM; with OVCAR-3 ovarian, 17.4 µM; in the experiment on HCC-2998 colon, 17.7 µM; in the experiment on NCI-H522 lung, 6.55 µM; with UACC-62 melanoma, 12.5 µM. Also, the GI50 with SNB-75 CNS is 13 µM; with OVCAR-5 ovarian, 19.6 µM; in the experiment with M14 melanoma it was 14.4 µM; with 786-0 renal, 26.5 µM. For the same compound, the TGI in the experiment with NCI-H23 lung is 43.4 µM; with A498 renal it was greater than 100 µM; in the experiment with OVCAR-3 ovarian it was 39.1 µM; in the experiment with HCC-2998 colon, 32.2 µM; with NCI-H522 lung, 32.8 µM; in the experiment on UACC-62 melanoma it was 32.7 µM. Also, the TGI in the experiment with SNB-75 CNS was 64.7 µM; with OVCAR-5 ovarian, 36.3 µM; in the experiment with M14 melanoma, 34 µM; in the experiment with 786-0 renal, greater than 100 µM.

Regarding `COC(=O)/C(=C/c1ccc(OC)cc1)c1cc(OC)c(OC)c(OC)c1`, the TGI in the experiment with NCI-H23 lung was 26.8 µM; with A498 renal, greater than 39 µM; with OVCAR-3 ovarian it was 2.63 µM; in the experiment with HCC-2998 colon, greater than 59 µM; in the experiment with NCI-H522 lung, 4.58 µM; in the experiment with UACC-62 melanoma it was 37.4 µM. Moreover, the TGI in the experiment on SNB-75 CNS is 5.77 µM; in the experiment with OVCAR-5 ovarian it was greater than 100 µM; with M14 melanoma it was greater than 96.3 µM; with 786-0 renal, greater than 86 µM.

Take `COC(=O)c1ccccc1NCc1cc(O)ccc1O`: the TGI in the experiment with NCI-H23 lung is greater than 68.5 µM; with A498 renal, greater than 89.2 µM; with OVCAR-3 ovarian it was 32.5 µM; in the experiment on HCC-2998 colon, greater than 55.7 µM; in the experiment on NCI-H522 lung it was 6.75 µM; in the experiment on UACC-62 melanoma, 45.5 µM. Moreover, the TGI with SNB-75 CNS was greater than 75.9 µM; in the experiment on OVCAR-5 ovarian, greater than 62.1 µM; in the experiment with M14 melanoma, 17.1 µM; in the experiment with 786-0 renal it was 31.7 µM.

In the case of `CN1OC(CO)CC12C1CC3CC(C1)CC2C3` (stereo not given), the TGI in the experiment with NCI-H23 lung, in the experiment on A498 renal, in the experiment with OVCAR-3 ovarian, with HCC-2998 colon, in the experiment with NCI-H522 lung and in the experiment with UACC-62 melanoma was greater than 100 µM throughout. Also, the TGI with SNB-75 CNS, with OVCAR-5 ovarian, with M14 melanoma and in the experiment on 786-0 renal was greater than 100 µM in each case.

Take `CCCNc1ncnc2c1cnn2C`: the TGI in the experiment with NCI-H23 lung, with A498 renal, in the experiment with OVCAR-3 ovarian, with HCC-2998 colon, in the experiment on NCI-H522 lung and in the experiment on UACC-62 melanoma was greater than 100 µM each time. Also, the TGI in the experiment with SNB-75 CNS, with OVCAR-5 ovarian, in the experiment on M14 melanoma and in the experiment on 786-0 renal was greater than 100 µM each time.

Regarding `N#Cc1c(N/N=C/c2c(Cl)cccc2Cl)nc(N)nc1N1CCCC1`, the GI50 is 1.16 µM in the experiment on NCI-H23 lung; 0.502 µM in the experiment with A498 renal; 0.878 µM in the experiment on OVCAR-3 ovarian; 1.34 µM with HCC-2998 colon; 2.63 µM with NCI-H522 lung; 1.47 µM in the experiment with UACC-62 melanoma. Further, the GI50 in the experiment with SNB-75 CNS was 2.01 µM; in the experiment with OVCAR-5 ovarian, 8.31 µM; in the experiment with M14 melanoma, 1.36 µM; in the experiment with 786-0 renal it was 3.93 µM. Besides, the TGI with NCI-H23 lung was 9.11 µM; in the experiment on A498 renal, 3.18 µM; with OVCAR-3 ovarian, greater than 100 µM; in the experiment with HCC-2998 colon, 21 µM; with NCI-H522 lung it was 13.3 µM; in the experiment on UACC-62 melanoma it was greater than 100 µM. The TGI in the experiment with SNB-75 CNS, in the experiment on OVCAR-5 ovarian, with M14 melanoma and with 786-0 renal was greater than 100 µM in each case.

For `CC1=C(C(=O)OC(C)(C)C)C(c2ccc([N+](=O)[O-])cc2)C(C(=O)OC(C)(C)C)=C(C)N1`, the TGI with NCI-H23 lung was 45.3 µM; in the experiment on A498 renal, 37.6 µM; in the experiment with OVCAR-3 ovarian, 36.7 µM; in the experiment on HCC-2998 colon it was 27.2 µM; in the experiment on NCI-H522 lung, 36.4 µM; in the experiment with UACC-62 melanoma, 34.8 µM. Also, the TGI with SNB-75 CNS was determined as 61.2 µM; in the experiment with OVCAR-5 ovarian, 34.9 µM; with M14 melanoma, 47.6 µM; in the experiment with 786-0 renal it was 38.7 µM.
